# Source: publication PMC10512030, “Prolidase-proline oxidase axis is engaged in apoptosis induction by birch buds flavonol santin in endometrial adenocarcinoma cell line” (Frontiers in Molecular Biosciences, 2023)
# Where two headings read alike, the source gives them in different places.
# Tests used:
# [1] = system: cervical adenocarcinoma HeLa cells; assay: Cell viability MTT assay, HeLa; format: cell-based, human
# [2] = system: endometrial adenocarcinoma Ishikawa cells; assay: Cell viability MTT assay, Ishikawa; format: cell-based, human; conditions: read-out: IC50 values ± SD in MTT assay
# [3] = system: normal fibroblasts (dermal fibroblasts CCD25Sk); assay: Cell viability MTT assay, fibroblasts; format: cell-based, human; conditions: for IC50: Fibroblasts, read-out: IC50 values ± SD in MTT assay
# [4] = system: cervical adenocarcinoma HeLa cells; assay: Cell viability neutral red uptake assay, HeLa; format: cell-based, human; conditions: read-out: IC50 values ± SD in neutral red uptake assay
# [5] = system: endometrial adenocarcinoma Ishikawa cells; assay: Cell viability neutral red uptake assay, Ishikawa; format: cell-based, human; conditions: read-out: IC50 values ± SD in neutral red uptake assay
# [6] = system: normal fibroblasts (dermal fibroblasts CCD25Sk); assay: Cell viability neutral red uptake assay, fibroblasts; format: cell-based, human; conditions: read-out: IC50 values ± SD in neutral red uptake assay
# [7] = system: breast epithelial cells MCF 10A; assay: Cell viability MTT assay, MCF 10A; format: cell-based, human; conditions: 48 h
# [8] = system: cervical adenocarcinoma HeLa cells; conditions: cited from earlier work; for IC50: HeLa, ref Souza et al., 2017, read-out: IC50 determined by MTT assay
# [9] = HeLa, 24 h, read-out: IC50 values ± SD in MTT assay
# [10] = HeLa, 48 h, read-out: IC50 values ± SD in MTT assay
# [11] = Homo sapiens, HeLa, 24 h, HeLa, 24 h, read-out: IC50 values ± SD in MTT assay
# [12] = Homo sapiens, HeLa, 48 h, HeLa, 48 h, read-out: IC50 values ± SD in MTT assay
Compound,IC50 ([2]; 24 h) [µM],"IC50 [1, 11] [µM]","IC50 [1, 12] [µM]","IC50 ([2]; Homo sapiens, 24 h) [µM]","IC50 ([2]; Homo sapiens, 48 h) [µM]","IC50 ([3]; Homo sapiens, Fibroblast, 24 h) [µM]","IC50 ([3]; Homo sapiens, Fibroblast, 48 h) [µM]","IC50 ([4]; Homo sapiens, 24 h) [µM]","IC50 ([4]; Homo sapiens, 48 h) [µM]","IC50 ([5]; Homo sapiens, 24 h) [µM]","IC50 ([5]; Homo sapiens, 48 h) [µM]","IC50 ([6]; Homo sapiens, Fibroblast, 24 h) [µM]","IC50 ([6]; Homo sapiens, Fibroblast, 48 h) [µM]",further results
"COc1ccc(-c2cc(=O)c3c(O)cc(OC)cc3o2)cc1 [apigenin 7,4′-O-dimethyl ether]",26.2 ± 1.9,,,,,,,,,,,,,"IC50 [1, 9]: > 50 µM; IC50 [1, 10]: > 50 µM; IC50 ([2]; 48 h): 20.9 ± 1.4 µM; effect on viability of fibroblasts [3]: significantly decreased viability; IC50 ([3]; 24 h): 18 ± 3.9 µM; IC50 ([3]; 48 h): 10.9 ± 4.6 µM; IC50 ([4]; 24 h): > 50 µM; IC50 ([4]; 48 h): > 50 µM; IC50 ([5]; 24 h): > 50 µM; IC50 ([5]; 48 h): > 50 µM; IC50 ([6]; 24 h): 27.6 ± 2.8 µM; IC50 ([6]; 48 h): 7.6 ± 1.1 µM"
"O=c1cc(-c2ccc(O)cc2)oc2cc(O)cc(O)c12 [apigenin, reference compound]",,~30,~17.9,> 50,33.1 ± 2.2,> 50,> 50,~27,~14.2,> 50,38 ± 2.1,> 50,48.6 ± 3.1,IC50 ([7]; Homo sapiens): 14.5 ± 1.8 µM; IC50 ([8]; 24 h): ~38 µM; IC50 ([8]; 48 h): ~10 µM
COc1cc2oc(-c3ccc(O)cc3)cc(=O)c2c(O)c1OC [cirsimaritin],> 50,36.6 ± 2.2,16 ± 1.9,> 50,19.6 ± 2.6,> 50,> 50,17.5 ± 2.4,13.9 ± 1.4,34.2 ± 2.7,26.1 ± 2.1,> 50,> 50,
"N.N.[Cl][Pt][Cl] [cisplatin, reference compound]",> 50,,,,,,,,,,,,,"IC50 [1, 9]: 30 ± 2.7 µM; IC50 [1, 10]: 9.4 ± 1.3 µM; IC50 ([2]; 24 h, listed as Cisplatin): > 50 µM; IC50 ([2]; 48 h): 12 ± 2 µM; IC50 ([3]; 24 h): > 50 µM; IC50 ([3]; 48 h): 40.5 ± 4.3 µM; IC50 ([4]; 24 h): 20 ± 2.7 µM; IC50 ([4]; 48 h): 9.7 ± 2.3 µM; IC50 ([5]; 24 h): 28.1 ± 2 µM; IC50 ([5]; 48 h): 11.7 ± 2.2 µM; IC50 ([6]; 24 h): > 50 µM; IC50 ([6]; 48 h): 43.1 ± 3.5 µM; IC50 [7]: 17.8 ± 2.3 µM"
COc1ccc(-c2oc3cc(O)cc(O)c3c(=O)c2OC)cc1 [ermanin],,> 50,31.8 ± 2.4,> 50,> 50,> 50,> 50,39 ± 2.9,33.2 ± 1.9,> 50,46.7 ± 3.2,> 50,> 50,
O=c1c(O)c(-c2ccc(O)cc2)oc2cc(O)cc(O)c12 [kaempferol],,> 50,> 50,> 50,> 50,> 50,> 50,> 50,38.3 ± 2.5,> 50,> 50,> 50,> 50,
COc1cc(O)c2c(=O)c(OC)c(-c3ccc(O)cc3)oc2c1 [kumatakenin],,> 50,> 50,30.5 ± 2,24.2 ± 1.8,47 ± 5.6,42.9 ± 4.3,> 50,> 50,> 50,> 50,35.7 ± 2.5,15.3 ± 2.3,"effect on viability of fibroblasts ([3]; fibroblasts, MTT and neutral red uptake assays, 24 and 48 h): significantly decreased viability"
"O=c1cc(-c2ccc(O)c(O)c2)oc2cc(O)cc(O)c12 [luteolin, reference compound]",,42.8 ± 3.6,,> 50,25.9 ± 2.5,> 50,> 50,31.5 ± 2.5,~28,> 50,31.6 ± 2.9,> 50,> 50,"IC50 ([7]; Homo sapiens): 8.4 ± 1.5 µM; reduction in HeLa cell viability ([8]; 20 μM luteolin, MTT assay, 48 h time point, ref Raina et al., 2021): about 50%"
"COc1ccc(C2CC(=O)c3c(O)cc(OC)cc3O2)cc1 (centres unmarked) [naringenin 7,4′-O-dimethyl ether]",> 50,,,,,,,,,,,,,"IC50 [1, 9]: > 50 µM; IC50 [1, 10]: > 50 µM; IC50 ([1]; cancer cells (HeLa and Ishikawa), MTT and neutral red uptake assays, 24 and 48 h, read-out: IC50, viability of cancer cells): > 50 µM; IC50 ([2]; 48 h): > 50 µM; IC50 ([3]; 24 h): > 50 µM; IC50 ([3]; 48 h): > 50 µM; IC50 ([4]; 24 h): > 50 µM; IC50 ([4]; 48 h): > 50 µM; IC50 ([5]; 24 h): > 50 µM; IC50 ([5]; 48 h): > 50 µM; IC50 ([6]; 24 h): > 50 µM; IC50 ([6]; 48 h): > 50 µM"
O=c1c(O)c(-c2ccc(O)c(O)c2)oc2cc(O)cc(O)c12 [quercetin],,> 50,> 50,> 50,45.4 ± 4.1,> 50,> 50,39.1 ± 3.2,36.9 ± 2,> 50,42.9 ± 3.8,> 50,> 50,
COc1cc(O)c2c(c1)O[C@H](c1ccc(O)cc1)CC2=O [sakuranetin],,> 50,> 50,> 50,> 50,> 50,> 50,> 50,> 50,> 50,> 50,> 50,> 50,"IC50 ([1]; Homo sapiens, HeLa, cancer cells (HeLa and Ishikawa), MTT and neutral red uptake assays, 24 and 48 h, read-out: IC50, viability of cancer cells): > 50 µM"
